Data published in patent US20100112012A1, “MODULATION OF IMMUNE RESPONSES” (CLEVELAND CLINIC FOUNDATION, priority 2005, published 2010).
“Also recorded” adds a separate entry of the source. Like-named read-outs stand apart in the source and are kept apart here. Values belong to the molecule of their own block, whether it stands above or below them.

How the values were obtained:
ACHN cells = experiment: Experimental chemotherapy of tumor xenografts; format: in vivo, nude mice; conditions: ACHN xenograft nude mice; QC 50 mg/kg; 5-fluorouracil 35 mg/kg
Experimental: NIH Swiss athymic nude, male mice, 5-6 weeks old, were purchased from Harlan. 5×10^6 tumor cells were inoculated into the flanks of mice in 100 μL of PBS. When tumors reached 5 mm in diameter, intraperitoneal injections of drugs were started in 100 μL of a solution of 50% DMSO in PBS (except for quinacrine, which was dissolved in PBS). As vehicle, 50% DMSO solution in PBS was used. Tumor size was measured in three dimensions every other day.

proteasomal activity = experiment: Proteasome inhibitor assay; format: biochemical; conditions: direct in vitro assay (not shown)
Source text: The kit for assaying proteasomal activity was purchased from Boston Biochem, Inc. and used according to the manufacturer's recommendations.

topoisomerase II = experiment: DNA topoisomerase II activity assay; format: cell-based, human; conditions: direct in vitro assay, 1 h
RCC45 and RCC54 cells = experiment: Growth arrest or apoptosis of RCC cells treated with 9AA; format: cell-based, human
NF-κB [1] = experiment: Electromobility shift assay and immunofluorescent staining of nuclear NF-κB; format: cell-based, human
Source text: (§1) All washings were done with blocking solution.

p53 [2] = experiment: Screening for p53-activating compounds, p53-responsive reporter in RCC45ConALacZ cells; format: cell-based, human
Experimental: (§2) Transient transfections. 2×10^5 cells were plated into 6-well plates and, after overnight incubation, transfected with Lipofectamin Plus reagent (Gibco BRL) with 0.5 μg of reporter plasmids (p21-ConALuc or pNF-κBLuc) in combination with different concentrations of plasmids expressing p53, Arf, Ss-IκB, or siHDM2. Corresponding empty vectors were added in all transfections up to 2 μg of total DNA. Normalization of transfection efficiency was done by adding 0.2 μg of pCMV-LacZ plasmid. Luciferase activity and β-galactosidase activity were measured in lysates prepared 48 hours after transfection with Cell Lysis Buffer (Promega) by the luciferase assay system (Promega) or β-galactosidase enzyme system (Promega). Luminometric and colorimetric reactions were read on the Wallack 1420 plate reader (Perkin Elmer). Stable transduction of reporters. 2×10^4 cells with integrated reporter were plated in 96-well plates. After overnight incubation, chemicals or media from lentivirus-producing cells were added. At different times, cell lysates were prepared using Reporter Lysis Buffer (Promega). Luciferase or β-galactosidase activity and protein concentration were measured in aliquots of cell lysates using standard kits (Promega, Luciferase and β-galactosidase assay systems, Biorad Protein Assay Kit).
The DiverSet library of 34,000 chemical compounds and focused libraries of structural analogues of selected hits were provided by Chembridge, Calif. Cell lines with p53- or NF-κB-responsive luciferase or β-galactosidase reporters were described previously (5, 7). For screening chemicals, 2×10^4 RCC45ConALacZ cells (RCC45-based p53 reporter cells) were plated per well of 96-well plates in 200 μL of phenol-red-free RPMI medium with standard additions. After overnight incubation, the compounds were added to final concentrations of 5-15 μM (0.2 μL of compound in DMSO per well). […] After 24 h, lysis buffer with ortho-nitrophenyl-β-D-galactopyranoside (ONPG) was added and β-galactosidase activity was estimated colorimetrically by a multiwell plate reader.

p65 subunit of NF-κB = experiment: Phosphorylation of serine 536 of p65 (Western analysis); format: cell-based, human; conditions: basally and after TNF-dependent induction; 9AA 10 μM
Experimental: (§3) Cells were lysed in RIPA buffer (25 mM Tris HCl, pH 7.2, 125 mM NaCl, 1% NP40, 1% sodium deoxycholate, 1 mM EDTA) containing 1 mM PMSF (Sigma), 10 ug/ml of aprotinin (Sigma) and 10 ug/ml of leupeptin (Sigma). Protein concentrations were determined with the BioRad Dc protein assay kit. Equal protein amounts were run on gradient 4-20% precast gels (Novex) and blotted onto PVDF membranes (Amersham). The following antibodies were used: anti-p53—monoclonal mouse DO1 (Santa-Cruz), anti-p21—monoclonal mouse F-5 (Santa-Cruz), anti-mdm2—monoclonal mouse SMP14 (Santa-Cruz), anti-p65—(C20, Santa Cruz), anti-phospho-p65—(ser536, Cell Signaling), anti-IκBa—(C21, Santa Cruz), anti-p50—(NLS, Santa Cruz), anti-IKK1 (Cell Signaling), anti-γH2X (Cell Signaling), anti-actin (Santa Cruz). p53 phosphorylation status was analyzed using the phospho-p53 sampler kit from Cell Signaling according to the manufacturer's recommendations. HRP-conjugated secondary antibodies were purchased from Santa Cruz. Quantitation of the data was performed using Quantity One software from BioRad.

p53 [3] = experiment: p53-responsive reporter activity in tumor cells (HT1080 and others); format: cell-based, human; conditions: for time of peak (maximum) p53 reporter activity: HT1080 cells
Experimental: as §2

p53 [4] = experiment: p53, p21 and Mdm2 levels in treated cells (Western analysis); format: cell-based, human
Experimental: as §3

p53 [5] = experiment: Phosphorylation status of p53 (Western analysis); format: cell-based, human; conditions: RCC45 cells, 9AA 5 μM, 16 h
Experimental: as §3

p53 [6] = experiment: Transient transfection of sr-IκB with p53-responsive reporter; format: cell-based, human; conditions: ACHN cells, 9AA 10 μM, 24 h
Experimental: as §2

RCC cell lines = experiment: Growth inhibition assay, RCC, non-RCC and normal kidney (NKE) cells; format: cell-based, human
histone H2A.X = experiment: Immunofluorescent detection of phosphorylated histone H2A.X; format: cell-based, human; conditions: HT1080 cells, 10 μM
Source text: as §1

NF-κB [7] = experiment: NF-κB-dependent reporter in H1299-NF-kBLuc cells; format: cell-based, human; conditions: for basal activity of NF-κB: H1299-NF-κBLuc cells, tested side-by-side with 9AA
Experimental: as §2

p53-deficient cells [8] = system: p53-deficient cells
HT1080 cells = experiment: Cell cycle analysis; format: cell-based, human; conditions: p53-dependent
Experimental: At the end of the incubation period, cells were collected, fixed and stained with propidium iodide as previously described (3a). DNA content was measured using FACScalibur (Becton Dickinson) and analyzed using CellQuest software.

IκBα = IκBα level (Western analysis); format: cell-based, human
Experimental: as §3

p53-deficient cells [9] = experiment: Survival of isogenic pairs of tumor cells differing in p53 expression; conditions: isogenic pairs of cell lines, shRNA-mediated p53 knockdown
p53 [10] = experiment: p53 reporter in organ cultures of human RCC tumor samples; format: cell-based; conditions: organ cultures of adjacent normal kidney, 12 hours
Experimental: FIG. 11. QC can activate p53 transactivation in organ cultures of human RCC tumor samples. Fresh surgically removed samples of tumor and adjacent normal kidney were cut into small pieces and put into media containing ConALacZ virus (5×10^7 TU/ml) with […] of polybrene for 4 hours. 24 hours after infection, tissue pieces (at least three per treatment) were incubated with media containing quinacrine or doxorubicin for 12 hours. Then the tissues were fixed for 30 min in PBS containing 0.5% glutaraldehyde and 1 mM MgCl2. Pieces of tumor were stained in PBS solution containing X-gal (1 mM MgCl2, 3.3 mM K4Fe(CN)6, 3.3 mM K3Fe(CN)6, 0.02% NP40, 0.2% X-gal) overnight at 37° C. Stained specimens were analyzed microscopically by squeezing pieces of tumor and normal tissues between two glass slides.

[11] = PLA2 inhibitors, data not shown

weight loss (ACHN cells): up to 20%
SMILES: O=c1[nH]cc(F)c(=O)[nH]1 [5-fluorouracil]

SMILES: Nc1c2ccccc2nc2ccccc12 [9AA, 9-aminoacridine]
inhibition of proteasomal activity (proteasomal activity): ruled out
poisoning of topoisomerase II (topoisomerase II): no such activity
cellular effect in RCC45 and RCC54 cells (RCC45 and RCC54 cells; 2 μM): growth arrest
cellular effect in RCC45 and RCC54 cells (RCC45 and RCC54 cells; 10 μM): apoptosis
binding of NF-κB to DNA (NF-κB [1]; H1299-NF-κBLuc cells, with TNF 10 ng/ml, 6 h, gel-shift): significant increase in the binding of NF-κB to DNA
nuclear accumulation and retention of NF-κB (p65) complexes (NF-κB [1]; TNF 10 ng/ml, 10 μM): greatly prolonged the time of its presence in nuclei; also recorded: causes nuclear accumulation of inactive NF-κB; also recorded: causes accumulation of p65/p50 and p50/p50 NF-κB complexes in the nuclei
composition of NF-κB complexes (NF-κB [1]; gel-shift assays with antibodies, H1299 cells): did not significantly change the composition of NF-κB complexes
activation of the p53-dependent reporter (p53 transactivation) in RCC (p53 [2]): structure primarily responsible for induction of the reporter
proportion of phosphorylated serine 536 in the p65 subunit of NF-κB (p65 subunit of NF-κB): reduce the proportion of phosphorylated serine 536; also recorded: decreases the phosphorylation of p65 in response to TNF
time of peak (maximum) p53 reporter activity (p53 [3]): 24 h
activation of p53-mediated transcription compared with DNA-damaging agents (p53 [3]; tumor cells with wild-type p53, 9AA 1-10 μM, doxorubicin 0.2-2 μM, 24 h): more strongly than doxorubicin in the majority of tumor cells tested; also recorded: more strongly than DNA-damaging agents
levels of the endogenous proteins p21 and Mdm2 (p53 [4]; cells treated for 16 h): dose-dependent increase
p53 mRNA expression (p53 [4]; data not shown): No increase
stabilization and accumulation of p53 protein (p53 [4]; treated cells (HT1080, 5 μM 9AA, 16 hours in FIG. 6)): induced stabilization and accumulation of p53 protein; also recorded: leads to p53 stabilization
phosphorylation of p53 (p53 [5]): did not induce the phosphorylation of p53
phosphorylation of p53 serine 392 (p53 [5]): increasingly phosphorylated
activation of a p53-dependent reporter in the presence of sr-IκB (p53 [6]): could not further activate
IC50 in RCC cells compared with non-RCC cells (RCC cell lines; 6 RCC and 6 non-RCC cell lines, growth inhibition assay): in the same range as for non-RCC cells
sensitivity of RCC-derived cell lines versus normal kidney epithelial (NKE) cells (RCC cell lines; 72 h after treatment): more toxic for RCC than for NKE cells; also recorded: more sensitive to 9AA than normal kidney epithelial cells
phosphorylation of histone H2A.X (histone H2A.X): Neither 9AA nor QC induced phosphorylation of histone H2A.X
basal and TNF-induced NF-κB reporter activities (NF-κB [7]; H1299-NF-kB-Luc cells, TNF 10 ng/ml): strong dose-dependent suppression; also recorded: capable of inhibiting both basal and TNF-induced activities of NF-κB
inhibition of NF-κB transactivation induced by trichostatin A (NF-κB [7]; H1299 cells, 100 nM TSA, 9AA 20 μM, 4 or 16 hours): could no longer be blocked by 9AA; also recorded: does not inhibit
toxicity to p53-deficient cells (p53 dependence of cytotoxicity) (p53-deficient cells [8]): less toxic to p53-deficient cells
effect on the cell cycle (HT1080 cells; 3 μM): growth arrest
effect on the cell cycle (HT1080 cells; 20 μM): apoptosis
level of IκBα (IκBα; PC-3 cells 10 μM 1-8 h, MCF7 cells 10 μM): gradual decrease or even complete disappearance of IκBα
TNF-stimulated induction of IκBα (IκBα; TNF 10 ng/ml, 9AA 10 μM): blocked; also recorded: inhibits reconstitution of the level of IκB protein

SMILES: Cc1ccc(S(=O)(=O)/C=C/C#N)cc1 [Bay11-7082]
activation of p53 by known NF-κB inhibitors (p53 [3]; data not shown): capable of activating p53
basal activity of NF-κB (NF-κB [7]): did not reduce the basal activity

SMILES: CC[C@@]1(O)C(=O)OCc2c1cc1n(c2=O)Cc2cc3ccccc3nc2-1 [camptothecin]
toxicity to p53-deficient cells (p53 dependence of cytotoxicity) (p53-deficient cells [9]): equally or even more toxic than 9AA to p53-deficient cells

SMILES: COc1cc(CNC(=O)CCCC/C=C/C(C)C)ccc1O [capsaicin]
activation of p53 by known NF-κB inhibitors (p53 [3]; data not shown): capable of activating p53
basal activity of NF-κB (NF-κB [7]): did not reduce the basal activity

SMILES: COc1cccc2c1C(=O)c1c(O)c3c(c(O)c1C2=O)C[C@@](O)(C(=O)CO)C[C@@H]3O[C@H]1C[C@H](N)[C@H](O)[C@H](C)O1 [doxorubicin]
p53-responsive reporter induction in normal kidney samples (p53 [10]): no reporter induction
activation of the p53-dependent reporter (p53 transactivation) in RCC (p53 [2]): weakly activating
time of peak (maximum) p53 reporter activity (p53 [3]): 8 to 12 h
toxicity to p53-deficient cells (p53 dependence of cytotoxicity) (p53-deficient cells [9]): equally or even more toxic than 9AA to p53-deficient cells

SMILES: O=C(O)c1cc(/N=N/c2ccc(S(=O)(=O)Nc3ccccn3)cc2)ccc1O [sulfasalazine]
activation of p53 by known NF-κB inhibitors (p53 [3]; data not shown): capable of activating p53
basal activity of NF-κB (NF-κB [7]): did not reduce the basal activity

SMILES: CC(=O)O[C@H]1C(=O)[C@@]2(C)[C@H]([C@H](OC(=O)c3ccccc3)[C@]3(O)C[C@H](OC(=O)[C@H](O)[C@@H](NC(=O)c4ccccc4)c4ccccc4)C(C)=C1C3(C)C)[C@]1(OC(C)=O)CO[C@@H]1C[C@@H]2O [taxol]
toxicity to p53-deficient cells (p53 dependence of cytotoxicity) (p53-deficient cells [9]): equally or even more toxic than 9AA to p53-deficient cells

SMILES: CCCCCCCCCCCCCCCCSC[C@H](COP(=O)(O)OCC[N+](C)(C)C)NC(=O)CCCCCCCCCCCCCCC [thioetheramide-PC]
induction of p53 (p53 [3]; [11]): could neither induce p53
inhibition of NF-κB (NF-κB [7]; [11]): nor inhibit NF-κB

SMILES: CC(/C=C/C(=O)NO)=C\[C@@H](C)C(=O)c1ccc(N(C)C)cc1 [trichostatin A]
NF-κB-dependent transcription (NF-κB [7]; H1299 cells, 100 nM TSA, 4 or 16 hours): strong activation of NF-κB-dependent transcription

SMILES: CC[C@]1(O)C[C@@H]2CN(CCc3c([nH]c4ccccc34)[C@@](C(=O)OC)(c3cc4c(cc3OC)N(C)[C@H]3[C@@](O)(C(=O)OC)[C@H](OC(C)=O)[C@]5(CC)C=CCN6CC[C@]43[C@@H]65)C2)C1 [vinblastine]
toxicity to p53-deficient cells (p53 dependence of cytotoxicity) (p53-deficient cells [9]): equally or even more toxic than 9AA to p53-deficient cells
